Measured values from ChEMBL document CHEMBL5715954, “Silencing c-Myc translation as a therapeutic strategy through targeting PI3Kδ and CK1ε in hematological malignancies” (Blood, 2017).

Tests used:
Set-up in all cases: scale not given: the % may be the effect or the level left
[1] = molecular target: Death-associated protein kinase 1 (Homo sapiens) (UniProt P53355); assay: Inhibition of human DAPK1 assessed as enzyme activity at 1 uM using KKLNRTLSFAEPG as substrate preincubated for 20 mins followed by [gamma-33P]-ATP addition and measured after 120 mins by radiometric Hot-SpotSM Kinase assay relative to control
Sequence of Death-associated protein kinase 1 (Homo sapiens) (P53355 whole entry, looked up): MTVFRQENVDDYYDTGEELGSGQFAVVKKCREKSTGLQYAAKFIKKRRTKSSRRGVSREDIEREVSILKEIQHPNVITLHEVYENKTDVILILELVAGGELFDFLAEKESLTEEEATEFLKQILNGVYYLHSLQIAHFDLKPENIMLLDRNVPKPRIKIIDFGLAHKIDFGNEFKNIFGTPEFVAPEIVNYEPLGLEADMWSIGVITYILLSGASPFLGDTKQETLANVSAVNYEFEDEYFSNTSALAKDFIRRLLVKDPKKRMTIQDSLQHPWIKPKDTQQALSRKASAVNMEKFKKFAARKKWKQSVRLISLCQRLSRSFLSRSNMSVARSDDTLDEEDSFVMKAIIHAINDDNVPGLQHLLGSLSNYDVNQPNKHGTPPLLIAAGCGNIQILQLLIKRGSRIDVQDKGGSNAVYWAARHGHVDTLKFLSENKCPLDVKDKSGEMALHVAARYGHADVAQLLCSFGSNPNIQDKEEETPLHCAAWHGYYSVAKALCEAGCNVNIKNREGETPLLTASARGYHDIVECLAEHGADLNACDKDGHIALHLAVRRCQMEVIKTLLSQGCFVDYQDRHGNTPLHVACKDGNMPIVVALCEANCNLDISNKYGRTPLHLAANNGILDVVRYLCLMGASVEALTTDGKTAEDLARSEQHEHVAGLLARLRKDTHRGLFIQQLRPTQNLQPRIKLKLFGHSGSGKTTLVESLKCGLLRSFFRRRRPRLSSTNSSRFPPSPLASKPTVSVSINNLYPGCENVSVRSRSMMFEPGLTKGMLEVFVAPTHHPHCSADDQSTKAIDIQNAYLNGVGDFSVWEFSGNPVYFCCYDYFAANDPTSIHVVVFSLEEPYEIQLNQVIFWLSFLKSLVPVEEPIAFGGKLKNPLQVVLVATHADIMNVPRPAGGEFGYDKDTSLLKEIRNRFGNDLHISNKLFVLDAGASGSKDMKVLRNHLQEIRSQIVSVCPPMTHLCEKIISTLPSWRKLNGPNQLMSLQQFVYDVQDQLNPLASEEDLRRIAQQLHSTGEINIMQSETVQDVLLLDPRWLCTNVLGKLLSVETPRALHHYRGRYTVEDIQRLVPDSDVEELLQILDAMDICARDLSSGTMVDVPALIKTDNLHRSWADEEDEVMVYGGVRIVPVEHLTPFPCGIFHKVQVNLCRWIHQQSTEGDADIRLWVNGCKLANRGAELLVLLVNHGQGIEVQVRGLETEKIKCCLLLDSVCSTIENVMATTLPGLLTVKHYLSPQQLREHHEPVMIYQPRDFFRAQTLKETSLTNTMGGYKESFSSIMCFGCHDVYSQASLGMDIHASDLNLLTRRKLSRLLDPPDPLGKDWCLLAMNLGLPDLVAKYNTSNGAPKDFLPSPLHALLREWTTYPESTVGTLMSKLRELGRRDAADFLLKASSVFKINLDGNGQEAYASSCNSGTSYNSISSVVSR

[2] = molecular target: Ephrin type-A receptor 4 (Homo sapiens) (UniProt P54764); assay: Inhibition of human EPHA4 assessed as enzyme activity at 1 uM using poly[Glu:Tyr] (4:1) as substrate preincubated for 20 mins followed by [gamma-33P]-ATP addition and measured after 120 mins by radiometric Hot-SpotSM Kinase assay relative to control
Sequence of Ephrin type-A receptor 4 (Homo sapiens) (P54764 whole entry): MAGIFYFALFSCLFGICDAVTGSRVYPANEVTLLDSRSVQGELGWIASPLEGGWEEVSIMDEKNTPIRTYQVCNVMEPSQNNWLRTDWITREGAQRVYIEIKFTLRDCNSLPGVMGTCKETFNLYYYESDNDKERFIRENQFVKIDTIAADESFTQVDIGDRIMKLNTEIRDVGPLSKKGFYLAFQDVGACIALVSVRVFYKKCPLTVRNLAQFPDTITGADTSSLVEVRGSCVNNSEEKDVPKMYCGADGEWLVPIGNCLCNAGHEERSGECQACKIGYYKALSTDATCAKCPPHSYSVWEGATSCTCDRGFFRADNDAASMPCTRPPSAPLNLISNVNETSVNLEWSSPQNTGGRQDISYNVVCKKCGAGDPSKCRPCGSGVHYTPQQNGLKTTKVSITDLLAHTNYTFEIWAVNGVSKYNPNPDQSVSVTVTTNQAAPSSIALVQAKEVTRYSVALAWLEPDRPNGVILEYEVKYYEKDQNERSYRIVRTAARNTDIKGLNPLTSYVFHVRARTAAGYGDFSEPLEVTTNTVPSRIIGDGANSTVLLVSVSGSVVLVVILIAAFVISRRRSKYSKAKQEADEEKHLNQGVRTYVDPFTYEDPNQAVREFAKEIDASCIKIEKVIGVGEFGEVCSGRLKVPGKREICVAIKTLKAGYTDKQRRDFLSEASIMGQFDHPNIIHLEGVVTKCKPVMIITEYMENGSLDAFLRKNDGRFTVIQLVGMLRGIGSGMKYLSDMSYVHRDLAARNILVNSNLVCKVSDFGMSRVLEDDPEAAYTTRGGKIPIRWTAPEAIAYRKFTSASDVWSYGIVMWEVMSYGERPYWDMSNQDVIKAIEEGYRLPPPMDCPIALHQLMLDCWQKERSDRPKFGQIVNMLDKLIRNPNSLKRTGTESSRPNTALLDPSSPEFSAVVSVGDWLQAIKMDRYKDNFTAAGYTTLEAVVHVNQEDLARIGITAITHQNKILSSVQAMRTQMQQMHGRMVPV

[3] = molecular target: Serine/threonine-protein kinase/endoribonuclease IRE1 (Homo sapiens) (UniProt O75460); assay: Inhibition of human ERN1 assessed as enzyme activity at 1 uM using myelin basic protein as substrate preincubated for 20 mins followed by [gamma-33P]-ATP addition and measured after 120 mins by radiometric Hot-SpotSM Kinase assay relative to control
[4] = molecular target: Fibroblast growth factor receptor 3 (Homo sapiens) (UniProt P22607); assay: Inhibition of human FGFR3 assessed as enzyme activity at 1 uM using poly[Glu:Tyr] (4:1) as substrate preincubated for 20 mins followed by [gamma-33P]-ATP addition and measured after 120 mins by radiometric Hot-SpotSM Kinase assay relative to control
[5] = molecular target: Tyrosine-protein kinase HCK (Homo sapiens) (UniProt P08631); assay: Inhibition of human HCK assessed as enzyme activity at 1 uM using KVEKIGEGTYGVVYK as substrate preincubated for 20 mins followed by [gamma-33P]-ATP addition and measured after 120 mins by radiometric Hot-SpotSM Kinase assay relative to control
Sequence of Tyrosine-protein kinase HCK (Homo sapiens) (P08631 2-526 limits assumed): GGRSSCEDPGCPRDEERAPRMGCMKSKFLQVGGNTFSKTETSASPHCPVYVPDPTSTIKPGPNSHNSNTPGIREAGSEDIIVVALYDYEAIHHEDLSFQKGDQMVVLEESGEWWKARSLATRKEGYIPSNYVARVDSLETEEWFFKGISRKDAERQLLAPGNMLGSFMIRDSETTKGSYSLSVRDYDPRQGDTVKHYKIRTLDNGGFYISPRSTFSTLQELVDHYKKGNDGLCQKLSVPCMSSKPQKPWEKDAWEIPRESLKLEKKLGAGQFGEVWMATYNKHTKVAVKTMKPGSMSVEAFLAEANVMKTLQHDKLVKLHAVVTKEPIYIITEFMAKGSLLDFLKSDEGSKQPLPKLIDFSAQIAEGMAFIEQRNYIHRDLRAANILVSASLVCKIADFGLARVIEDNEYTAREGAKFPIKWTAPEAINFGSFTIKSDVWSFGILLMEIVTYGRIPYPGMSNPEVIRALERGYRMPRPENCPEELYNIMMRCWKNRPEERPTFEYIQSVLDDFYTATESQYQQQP

[6] = molecular target: T1, MAP kinase-activated protein kinase 5 (Homo sapiens) (UniProt Q8IW41); assay: Inhibition of human MAPKAPK5 assessed as enzyme activity at 1 uM using KKLNRTLSVA as substrate preincubated for 20 mins followed by [gamma-33P]-ATP addition and measured after 120 mins by radiometric Hot-SpotSM Kinase assay relative to control
T1 sequence (whole entry): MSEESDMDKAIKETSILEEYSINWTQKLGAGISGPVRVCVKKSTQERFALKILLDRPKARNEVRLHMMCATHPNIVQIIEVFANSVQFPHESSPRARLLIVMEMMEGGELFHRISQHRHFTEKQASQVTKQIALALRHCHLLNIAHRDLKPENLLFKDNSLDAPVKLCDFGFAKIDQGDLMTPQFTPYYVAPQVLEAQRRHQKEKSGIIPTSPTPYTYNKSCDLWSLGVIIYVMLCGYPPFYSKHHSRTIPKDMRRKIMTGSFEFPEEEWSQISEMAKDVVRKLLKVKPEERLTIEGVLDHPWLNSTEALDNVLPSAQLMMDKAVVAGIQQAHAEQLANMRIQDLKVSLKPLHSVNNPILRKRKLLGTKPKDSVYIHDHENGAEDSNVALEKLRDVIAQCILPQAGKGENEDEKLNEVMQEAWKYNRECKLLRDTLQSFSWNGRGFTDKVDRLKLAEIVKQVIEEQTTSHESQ

[7] = molecular target: T2, Muscle, skeletal receptor tyrosine-protein kinase (Homo sapiens) (UniProt O15146); assay: Inhibition of human MUSK assessed as enzyme activity at 1 uM using myelin basic protein as substrate preincubated for 20 mins followed by [gamma-33P]-ATP addition and measured after 120 mins by radiometric Hot-SpotSM Kinase assay relative to control
T2 sequence (whole entry): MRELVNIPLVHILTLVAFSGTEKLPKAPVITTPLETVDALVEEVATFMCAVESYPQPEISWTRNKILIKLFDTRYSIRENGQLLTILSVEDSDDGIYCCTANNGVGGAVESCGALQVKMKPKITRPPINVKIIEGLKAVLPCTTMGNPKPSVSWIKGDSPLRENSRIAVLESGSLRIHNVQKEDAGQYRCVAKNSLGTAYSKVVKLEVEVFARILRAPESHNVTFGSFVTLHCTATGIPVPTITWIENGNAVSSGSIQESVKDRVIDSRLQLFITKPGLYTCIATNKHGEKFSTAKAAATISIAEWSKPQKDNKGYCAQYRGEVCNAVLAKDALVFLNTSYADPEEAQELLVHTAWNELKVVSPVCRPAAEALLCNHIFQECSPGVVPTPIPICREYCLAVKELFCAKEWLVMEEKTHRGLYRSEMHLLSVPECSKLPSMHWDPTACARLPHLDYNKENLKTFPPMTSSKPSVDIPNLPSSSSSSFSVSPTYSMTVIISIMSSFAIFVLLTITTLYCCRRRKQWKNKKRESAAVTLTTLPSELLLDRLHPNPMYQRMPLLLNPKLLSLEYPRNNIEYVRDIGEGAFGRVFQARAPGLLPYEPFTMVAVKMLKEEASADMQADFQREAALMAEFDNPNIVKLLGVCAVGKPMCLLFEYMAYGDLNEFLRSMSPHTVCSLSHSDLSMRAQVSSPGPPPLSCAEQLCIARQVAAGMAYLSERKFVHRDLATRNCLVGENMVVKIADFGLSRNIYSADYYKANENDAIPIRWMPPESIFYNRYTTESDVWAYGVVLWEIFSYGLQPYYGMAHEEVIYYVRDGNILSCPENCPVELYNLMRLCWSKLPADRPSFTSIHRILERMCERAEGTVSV

[8] = molecular target: Citron Rho-interacting kinase (Homo sapiens) (UniProt O14578); assay: Inhibition of human STK21 assessed as enzyme activity at 1 uM using KKRPQRRYSNVF as substrate preincubated for 20 mins followed by [gamma-33P]-ATP addition and measured after 120 mins by radiometric Hot-SpotSM Kinase assay relative to control
Sequence of Citron Rho-interacting kinase (Homo sapiens) (O14578 whole entry): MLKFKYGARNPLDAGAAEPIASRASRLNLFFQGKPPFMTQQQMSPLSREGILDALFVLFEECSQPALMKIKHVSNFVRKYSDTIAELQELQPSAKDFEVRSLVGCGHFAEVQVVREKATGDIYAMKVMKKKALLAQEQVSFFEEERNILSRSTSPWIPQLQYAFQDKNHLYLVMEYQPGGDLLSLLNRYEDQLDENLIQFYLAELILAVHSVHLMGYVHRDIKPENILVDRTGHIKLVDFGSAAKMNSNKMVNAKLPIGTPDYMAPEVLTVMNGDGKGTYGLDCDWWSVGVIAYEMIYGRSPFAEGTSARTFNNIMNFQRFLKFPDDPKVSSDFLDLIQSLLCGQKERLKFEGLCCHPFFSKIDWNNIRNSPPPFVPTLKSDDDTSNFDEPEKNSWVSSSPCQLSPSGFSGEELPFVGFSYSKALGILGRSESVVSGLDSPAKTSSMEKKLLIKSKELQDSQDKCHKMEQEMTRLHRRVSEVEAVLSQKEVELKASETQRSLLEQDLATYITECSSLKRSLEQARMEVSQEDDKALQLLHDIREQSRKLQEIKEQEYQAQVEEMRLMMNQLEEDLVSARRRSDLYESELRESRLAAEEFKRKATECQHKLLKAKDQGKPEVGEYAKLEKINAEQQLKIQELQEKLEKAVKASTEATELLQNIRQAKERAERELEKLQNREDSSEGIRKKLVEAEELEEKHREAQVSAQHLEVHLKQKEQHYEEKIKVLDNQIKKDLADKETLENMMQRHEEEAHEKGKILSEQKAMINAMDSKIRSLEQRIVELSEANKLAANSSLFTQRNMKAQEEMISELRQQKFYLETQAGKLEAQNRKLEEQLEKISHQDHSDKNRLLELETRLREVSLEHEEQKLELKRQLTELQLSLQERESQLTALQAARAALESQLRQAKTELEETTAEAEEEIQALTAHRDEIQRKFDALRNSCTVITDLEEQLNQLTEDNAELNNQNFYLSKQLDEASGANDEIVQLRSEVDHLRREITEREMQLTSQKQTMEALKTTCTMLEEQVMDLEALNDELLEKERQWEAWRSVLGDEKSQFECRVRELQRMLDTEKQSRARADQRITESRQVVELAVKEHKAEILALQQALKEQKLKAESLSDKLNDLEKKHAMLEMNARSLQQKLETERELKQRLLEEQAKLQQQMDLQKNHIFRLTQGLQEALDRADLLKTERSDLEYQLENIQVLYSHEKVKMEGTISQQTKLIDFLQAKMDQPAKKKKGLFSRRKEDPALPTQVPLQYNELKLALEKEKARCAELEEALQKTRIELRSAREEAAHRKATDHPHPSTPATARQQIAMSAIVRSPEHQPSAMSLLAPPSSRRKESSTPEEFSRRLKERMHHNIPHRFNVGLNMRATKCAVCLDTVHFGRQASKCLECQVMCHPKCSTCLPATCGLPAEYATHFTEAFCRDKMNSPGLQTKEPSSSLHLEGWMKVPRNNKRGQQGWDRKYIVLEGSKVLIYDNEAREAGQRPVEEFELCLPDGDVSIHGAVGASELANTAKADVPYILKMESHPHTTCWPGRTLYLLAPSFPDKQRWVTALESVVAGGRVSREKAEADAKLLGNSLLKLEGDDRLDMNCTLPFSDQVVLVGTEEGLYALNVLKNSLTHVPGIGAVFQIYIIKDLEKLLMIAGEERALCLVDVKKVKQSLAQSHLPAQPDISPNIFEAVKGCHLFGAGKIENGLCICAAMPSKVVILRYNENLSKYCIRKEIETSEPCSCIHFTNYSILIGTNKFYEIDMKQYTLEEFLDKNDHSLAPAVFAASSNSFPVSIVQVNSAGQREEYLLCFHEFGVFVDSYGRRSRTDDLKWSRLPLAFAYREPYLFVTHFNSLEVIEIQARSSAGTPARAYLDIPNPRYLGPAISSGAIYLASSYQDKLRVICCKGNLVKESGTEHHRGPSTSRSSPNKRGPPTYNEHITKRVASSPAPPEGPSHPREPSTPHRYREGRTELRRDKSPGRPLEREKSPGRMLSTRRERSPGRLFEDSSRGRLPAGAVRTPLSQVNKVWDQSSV

Question: For C[C@H](Nc1ncnc2nc[nH]c12)c1cc2cccc(Cl)c2c(=O)n1-c1ccccc1, which Activity [1] is on record?
Answer: 97%

Question: What about the Activity [2] of the same molecule?
Answer: 87.9%

Question: What about the Activity [3] of the same molecule?
Answer: 97.3%

Question: What about the Activity [4] of the same molecule?
Answer: 93.2%

Question: What about the Activity [5] of the same molecule?
Answer: 98.7%

Question: And the Activity [6]?
Answer: 99%

Question: What about the Activity [7] of the same molecule?
Answer: 95.8%

Question: And the Activity [8]?
Answer: 93.5%

Question: Which Activity [1] does the source give for CC[C@H](Nc1ncnc2[nH]cnc12)c1nc2cccc(F)c2c(=O)n1-c1ccccc1 here?
Answer: 95%

Question: And the Activity [2]?
Answer: 93.8%

Question: And the Activity [3]?
Answer: 96.4%

Question: What about the Activity [4] of the same molecule?
Answer: 88.8%

Question: What about the Activity [5] of the same molecule?
Answer: 93.9%

Question: What about the Activity [6] of the same molecule?
Answer: 99.5%

Question: What about the Activity [7] of the same molecule?
Answer: 94.4%

Question: And the Activity [8]?
Answer: 101%

Question: CC(C)Oc1ccc(-c2nn([C@@H](C)c3oc4ccc(F)cc4c(=O)c3-c3cccc(F)c3)c3ncnc(N)c23)cc1F [UMBRALISIB] was tested. Which Activity [1] did it give?
Answer: 99.7%

Question: And the Activity [2]?
Answer: 85.9%

Question: What about the Activity [3] of the same molecule?
Answer: 91.6%

Question: What about the Activity [4] of the same molecule?
Answer: 94.3%

Question: And the Activity [5]?
Answer: 91%

Question: What about the Activity [6] of the same molecule?
Answer: 104%

Question: What about the Activity [7] of the same molecule?
Answer: 97.5%

Question: What about the Activity [8] of the same molecule?
Answer: 113%
